The target of this assay is T1, Human Recombinant Matriptase 2 (Homo sapiens, UniProt Q8IU80).
T1 construct: purchased Enzo Life Sciences (an in-house preparation was also used) ALX-201-752-1
T1 sequence (Q8IU80 1-811): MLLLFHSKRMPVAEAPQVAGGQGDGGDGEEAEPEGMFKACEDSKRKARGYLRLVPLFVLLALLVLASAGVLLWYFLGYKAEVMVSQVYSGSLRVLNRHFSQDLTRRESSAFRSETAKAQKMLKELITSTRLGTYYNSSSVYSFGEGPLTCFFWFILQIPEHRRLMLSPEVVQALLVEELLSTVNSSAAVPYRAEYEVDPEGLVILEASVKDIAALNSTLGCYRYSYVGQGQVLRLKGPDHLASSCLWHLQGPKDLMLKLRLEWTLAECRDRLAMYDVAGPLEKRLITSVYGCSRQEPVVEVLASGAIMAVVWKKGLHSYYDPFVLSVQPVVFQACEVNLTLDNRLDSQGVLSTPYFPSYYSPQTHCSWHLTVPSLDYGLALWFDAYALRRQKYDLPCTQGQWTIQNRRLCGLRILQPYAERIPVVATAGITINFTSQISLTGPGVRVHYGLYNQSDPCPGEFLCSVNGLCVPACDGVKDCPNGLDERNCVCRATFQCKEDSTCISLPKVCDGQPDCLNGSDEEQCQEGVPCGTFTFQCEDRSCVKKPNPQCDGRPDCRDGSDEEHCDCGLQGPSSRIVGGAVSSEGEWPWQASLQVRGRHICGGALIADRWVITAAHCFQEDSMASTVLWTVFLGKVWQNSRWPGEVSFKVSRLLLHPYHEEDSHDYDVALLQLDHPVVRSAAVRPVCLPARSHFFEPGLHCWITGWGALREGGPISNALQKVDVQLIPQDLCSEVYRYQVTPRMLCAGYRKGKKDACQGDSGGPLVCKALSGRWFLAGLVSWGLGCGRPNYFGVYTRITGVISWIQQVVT
Description: Matriptase 2 fluorescence based inhibition assay, Method A (100 mM TRIS pH 9, 1 mg/mL BSA). Type of assay: biochemical. The following applies: 1 uM; Assay Used A; read-out: Mar-2 % inhibition at 1 uM. Put shortly: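 At 25° C in 100 mM TRIS pH 9 with 1 mg/mL BSA and 1% DMSO, compounds were preincubated 30 min with 7 nM commercial or 15 nM in-house protein before adding 100 μM Boc-Gln-Ala-Arg-7-amido-4-methyl coumarin. Fluorescence at 360/480 nm after 60 min; single points at 1 and 10 μM, IC50 by variable-slope nonlinear regression.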

Among the data in patent publication US12428415B2, “Matriptase 2 inhibitors and uses thereof” (Disc Medicine, Inc., priority 2018, dated 2025) are inhibition values, retold here.

On to `C=CCOc1cccc(NC(=O)c2cc3ccc(C(=N)N)cc3n2Cc2ccc(C(N)=O)cc2)c1` [Compound I-139], for which the inhibition at 1 µM is 0 to 25%.
Regarding `N=C(N)c1ccc2cc(C(=O)Nc3cccc(N4CC[C@@H](F)C4)c3)n(Cc3ccc(C(N)=O)cc3)c2c1` [Compound I-140], the inhibition at 1 µM fell in the range of 0 to 25%.
The value for `CC(C)OC(=O)NC(=N)c1ccc2cc(C(=O)Nc3cccc(N4CCCC4)c3)n(Cc3ccc(C(N)=O)cc3)c2c1` [Compound I-142] was 25 to 50%; that for `N=C(NC(=O)OCc1ccccc1)c1ccc2cc(C(=O)Nc3cccc(N4CCCC4)c3)n(Cc3ccc(C(N)=O)cc3)c2c1` [Compound I-143] was 0 to 25%.
Consider `N=C(N)c1ccc2cc(C(=O)Nc3cccc(-c4nccs4)c3)n(Cc3ccc(C(N)=O)cc3)c2c1` [Compound I-144], for which the inhibition at 1 µM is 0 to 25%.
Turning to `N=C(N)c1ccc2cc(C(=O)Nc3ccc(Br)cc3F)n(Cc3ccc(C(N)=O)cc3)c2c1` [Compound I-145], the inhibition at 1 µM was in the range of 0 to 25%.
Regarding `C#CCOc1cccc(NC(=O)c2cc3ccc(C(=N)N)cc3n2Cc2ccc(C(N)=O)cc2)c1` [Compound I-146], the inhibition at 1 µM lay within 25 to 50%.
The value for `CC(C)COC(=O)NC(=N)c1ccc2cc(C(=O)Nc3cccc(N4CCCC4)c3)n(Cc3ccc(C(N)=O)cc3)c2c1` [Compound I-147] was 0 to 25%.
`N=C(NC(=O)Oc1ccccc1)c1ccc2cc(C(=O)Nc3cccc(N4CCCC4)c3)n(Cc3ccc(C(N)=O)cc3)c2c1` [Compound I-148]: the inhibition at 1 µM is 0 to 25%.
For `CS(=O)(=O)c1cccc(NC(=O)c2cc3ccc(C(=N)N)cc3n2Cc2ccc(C(N)=O)cc2)c1` [Compound I-150], the inhibition at 1 µM was in the range of 0 to 25%.
As to `N=C(N)c1ccc2cc(C(=O)Nc3cccc(-c4ccccc4)c3)n(Cc3ccc(C(N)=O)cc3)c2c1` [Compound I-151], the inhibition at 1 µM is 0 to 25%.
As to `N=C(N)c1ccc2cc(C(=O)Nc3cc(N4CCCC4)ccc3F)n(Cc3ccc(C(N)=O)cc3)c2c1` [Compound I-152], the inhibition at 1 µM is 0 to 25%.
Turning to `N=C(N)c1ccc2cc(C(=O)Nc3cccc(-n4ccccc4=O)c3)n(Cc3ccc(C(N)=O)cc3)c2c1` [Compound I-153], the inhibition at 1 µM fell in the range of 25 to 50%.
On to `N=C(N)c1ccc2cc(C(=O)Nc3cccc(-n4cccc4)c3)n(Cc3ccc(C(N)=O)cc3)c2c1` [Compound I-154], for which the inhibition at 1 µM is 0 to 25%.
For the compound `N=C(N)c1ccc2cc(C(=O)Nc3ccc(F)c(N4CCCC4)c3)n(Cc3ccc(C(N)=O)cc3)c2c1` [Compound I-155], the inhibition at 1 µM was 0 to 25%.
Turning to `N=C(N)c1ccc2cc(C(=O)Nc3cccc(N4CCCC4=O)c3)n(Cc3ccc(C(N)=O)cc3)c2c1` [Compound I-156], the inhibition at 1 µM lay within 0 to 25%.
The value for `CC(C)[C@@H](NC(=O)OC(C)(C)C)C(=O)O/N=C(\N)c1ccc2cc(C(=O)Nc3cccc(N4CCCC4)c3)n(Cc3ccc(C(N)=O)cc3)c2c1` [Compound I-157, (R)-tert-butyl (1-(((amino(1-(4-carbamoylbenzyl)-2-((3-(pyrrolidin-1-yl)phenyl)-carbamoyl)-1H-indol-6-yl)methylene)amino)oxy)-3-methyl-1-oxobutan-2-yl)carbamate] was 0 to 25%; that for `C[C@H](NC(=O)OC(C)(C)C)C(=O)O/N=C(\N)c1ccc2cc(C(=O)Nc3cccc(N4CCCC4)c3)n(Cc3ccc(C(N)=O)cc3)c2c1` [Compound I-158, (S)-tert-butyl (1-(((amino(1-(4-carbamoylbenzyl)-2-((3-(pyrrolidin-1-yl)phenyl)carbamoyl)-1H-indol-6-yl)methylene)amino)oxy)-1-oxopropan-2-yl)carbamate] was 0 to 25%; that for `CCCCCCOC(=O)NC(=N)c1ccc2cc(C(=O)Nc3cccc(N4CCCC4)c3)n(Cc3ccc(C(N)=O)cc3)c2c1` [Compound I-159] was 0 to 25%.
On to `CCCCOC(=O)NC(=N)c1ccc2cc(C(=O)Nc3cccc(N4CCCC4)c3)n(Cc3ccc(C(N)=O)cc3)c2c1` [Compound I-160], for which the inhibition at 1 µM was 0 to 25%.

Broadly, the inhibition is the relative decrease from the control value, in per cent.
